One assay has as its target T1, ZAP-70 (Homo sapiens, UniProt P43403).
T1 construct: endogenous in cells; host or cells: cell lysate
T1 sequence (P43403 1-619): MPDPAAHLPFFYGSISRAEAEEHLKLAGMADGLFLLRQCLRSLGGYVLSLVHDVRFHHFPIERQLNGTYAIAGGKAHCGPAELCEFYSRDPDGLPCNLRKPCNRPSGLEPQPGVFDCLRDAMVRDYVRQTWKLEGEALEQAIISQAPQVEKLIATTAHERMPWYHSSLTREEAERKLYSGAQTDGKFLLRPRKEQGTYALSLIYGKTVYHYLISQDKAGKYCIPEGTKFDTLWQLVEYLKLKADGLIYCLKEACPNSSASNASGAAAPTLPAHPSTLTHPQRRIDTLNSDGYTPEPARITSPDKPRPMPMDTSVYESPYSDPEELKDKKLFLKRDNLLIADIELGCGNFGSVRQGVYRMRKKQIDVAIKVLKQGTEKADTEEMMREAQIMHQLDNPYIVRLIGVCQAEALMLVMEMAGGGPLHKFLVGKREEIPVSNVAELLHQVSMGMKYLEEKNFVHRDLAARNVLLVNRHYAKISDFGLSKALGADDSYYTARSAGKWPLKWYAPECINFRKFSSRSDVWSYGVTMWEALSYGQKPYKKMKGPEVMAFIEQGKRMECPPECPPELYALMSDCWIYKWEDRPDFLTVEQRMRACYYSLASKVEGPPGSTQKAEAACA
Put plainly: ZAP-70 kinobeads assay. It is filed as binding. To be noted: competition with immobilized aminopyrido-pyrimidine ligand 24 in cell lysate; ZAP-70 detected by dot blot. The procedure, abridged:
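Competition binding format: compounds compete with a bead-immobilized aminopyrido-pyrimidine ligand for ZAP-70 in cell lysate. After bead separation and elution, bound ZAP-70 measured by antibody dot blot with infrared read-out.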

In the next assay the test system is Jurkat cells. Put plainly: Calcium release assay (Fluo-4 flow cytometry after anti-CD3 stimulation). It is filed as cell-based. Conditions: Homo sapiens, Jurkat cell line J77, anti-CD3 activation, read-out: IC50 (Calcium ion release in cells). The procedure, abridged:
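Jurkat J77 cells loaded with Fluo-4/Pluronic F-127 for 30 min at 37 °C, then incubated with compound at room temperature in the dark in PBS–CaCl2 with 10% FCS. Stimulation with anti-CD3 (0.2 μg/ml final) plus GAM (0.75 μg/ml final) at 37 °C, then flow-cytometric Ca2+ fluorescence acquired for 200 s.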

In US20110098288A1, “SULFONAMIDES AS ZAP-70 INHIBITORS” (priority 2008, published 2011) one finds IC50 data, which are given here for 18 molecules.

pIC50: −log10 of the molar value. Where a name gives a salt, the structure may show the parent alone. A value given as a limit tells only on which side of the number the result lay.

In the case of `COc1cc(Nc2ncc(Cl)c(Nc3ccc4c(c3NS(C)(=O)=O)OCCO4)n2)cc(OC)c1OC` [Example 164, N-(6-(5-chloro-2-(3,4,5-trimethoxyphenylamino)pyrimidin-4-ylamino)-2,3-dihydrobenzo[b][1,4]dioxin-5-yl)methanesulfonamide], the pIC50 on ZAP-70 and with Jurkat cells was more than 7.00 each time.

Regarding `COc1cc(Nc2ncc(F)c(Nc3ccc(C)c(C)c3NS(C)(=O)=O)n2)cc(OC)c1OC` [Example 165, N-(6-(5-fluoro-2-(3,4,5-trimethoxyphenylamino)pyrimidin-4-ylamino)-2,3-dimethylphenyl)methanesulfonamide], the pIC50 at ZAP-70 and in the assay with Jurkat cells was 6.00 to 7.00 in each case.

`CCOc1cccc(Nc2nc(Nc3cc(OC)c(OC)c(OC)c3)ncc2F)c1NS(C)(=O)=O` [Example 166, N-(2-ethoxy-6-(5-fluoro-2-(3,4,5-trimethoxyphenylamino)pyrimidin-4-ylamino)phenyl)methanesulfonamide]: the pIC50 was more than 7.00 on ZAP-70 and 6.00 to 7.00 with Jurkat cells.

Take `COc1cc(Nc2ncc(F)c(Nc3ccc4c(c3NS(C)(=O)=O)OCCO4)n2)cc(OC)c1OC` [Example 167, N-(6-(5-fluoro-2-(3,4,5-trimethoxyphenylamino)pyrimidin-4-ylamino)-2,3-dihydrobenzo[b][1,4]dioxin-5-yl)methanesulfonamide]: the pIC50 at ZAP-70 and with Jurkat cells was more than 7.00 throughout.

Regarding `CCOc1ccc(Nc2nc(Nc3cc(OC)c(OC)c(OC)c3)ncc2F)c(NS(C)(=O)=O)c1C` [Example 168, N-(3-ethoxy-6-(5-fluoro-2-(3,4,5-trimethoxyphenylamino)pyrimidin-4-ylamino)-2-methylphenyl)methanesulfonamide], the pIC50 on ZAP-70 and in the assay on Jurkat cells was 6.00 to 7.00 each time.

Regarding `CCc1cccc(Nc2nc(Nc3cc(OC)c(OC)c(OC)c3)ncc2F)c1NS(C)(=O)=O` [Example 169, N-(2-ethyl-6-(5-fluoro-2-(3,4,5-trimethoxyphenylamino)pyrimidin-4-ylamino)phenyl)methanesulfonamide], the pIC50 on ZAP-70 was more than 7.00; with Jurkat cells, 6.00 to 7.00.

With `COc1cc(Nc2ncc(F)c(Nc3ccc(C)cc3NS(C)(=O)=O)n2)cc(OC)c1OC` [Example 170, N-(2-(5-Fluoro-2-(3,4,5-trimethoxyphenylamino)pyrimidin-4-ylamino)-5-methylphenyl)methanesulfonamide], the pIC50 on ZAP-70 and in the assay on Jurkat cells was 6.00 to 7.00 in each case.

For `COc1cc(Nc2ncc(F)c(Nc3ccc(N4CCOCC4)cc3NS(C)(=O)=O)n2)cc(OC)c1OC` [Example 171, N-(2-(5-fluoro-2-(3,4,5-trimethoxyphenylamino)pyrimidin-4-ylamino)-5-morpholinophenyl)methanesulfonamide], the pIC50 on ZAP-70 and with Jurkat cells was 6.00 to 7.00 each time.

Turning to `COc1cccc(Nc2nc(Nc3cc(OC)c(OC)c(OC)c3)ncc2F)c1NS(C)(=O)=O` [Example 172, N-(2-(5-fluoro-2-(3,4,5-trimethoxyphenylamino)pyrimidin-4-ylamino)-6-methoxyphenyl)methanesulfonamide], the pIC50 on ZAP-70 and in the assay on Jurkat cells was 6.00 to 7.00 each time.

On to `COc1ccc(Nc2nc(Nc3cc(OC)c(OC)c(OC)c3)ncc2F)c(NS(C)(=O)=O)c1` [Example 173, N-(2-(5-fluoro-2-(3,4,5-trimethoxyphenylamino)pyrimidin-4-ylamino)-5-methoxyphenyl)methanesulfonamide], for which the pIC50 at ZAP-70 and in the assay with Jurkat cells was more than 7.00 in each case.

On to `CCOc1ccc(Nc2nc(Nc3cc(OC)c(OC)c(OC)c3)ncc2F)c(NS(C)(=O)=O)c1` [Example 175, N-(5-ethoxy-2-(5-fluoro-2-(3,4,5-trimethoxyphenylamino)pyrimidin-4-ylamino)phenyl)methanesulfonamide], for which the pIC50 at ZAP-70 and in the assay with Jurkat cells was more than 7.00 in each case.

Take `COc1cc(Nc2nccc(Nc3cccc(C)c3NS(C)(=O)=O)n2)cc(OC)c1OC` [Example 176, N-(2-methyl-6-(2-(3,4,5-trimethoxyphenylamino)pyrimidin-4-ylamino)phenyl)methanesulfonamide]: the results for the pIC50 at ZAP-70 and in the assay with Jurkat cells were 6.00 to 7.00 and more than 7.00, respectively.

For the molecule `COc1cc(Nc2nccc(Nc3cccc(C)c3NS(C)(=O)=O)n2)cc(OCCN2CCCCC2)c1` [Example 177, N-(2-(2-(3-methoxy-5-(2-(piperidin-1-yl)ethoxy)phenylamino)pyrimidin-4-ylamino)-6-methylphenyl)methanesulfonamide formate salt], the pIC50 at ZAP-70 and in the assay with Jurkat cells was 6.00 to 7.00 each time.

Take `COc1ccc(Nc2nc(Nc3cc(OC)c(OC)c(OC)c3)ncc2Br)c(NS(C)(=O)=O)c1` [Example 178, N-(2-(5-bromo-2-(3,4,5-trimethoxyphenylamino)pyrimidin-4-ylamino)-5-methoxyphenyl)methanesulfonamide]: the pIC50 was more than 7.00 on ZAP-70 and 6.00 to 7.00 in the assay with Jurkat cells.

Turning to `COc1cc(Nc2ncc(F)c(Nc3ccc(OC(C)C)cc3NS(C)(=O)=O)n2)cc(OC)c1OC` [Example 182, N-(2-(5-fluoro-2-(3,4,5-trimethoxyphenylamino)pyrimidin-4-ylamino)-5-isopropoxyphenyl)methanesulfonamide], the pIC50 on ZAP-70 and with Jurkat cells was more than 7.00 in each case.

As for `COc1cc(Nc2ncc(F)c(Nc3cccc(F)c3NS(C)(=O)=O)n2)cc(OC)c1OC` [Example 183, N-(2-fluoro-6-(5-fluoro-2-(3,4,5-trimethoxyphenylamino)pyrimidin-4-ylamino)phenyl)methanesulfonamide], the pIC50 at ZAP-70 and in the assay with Jurkat cells was 6.00 to 7.00 each time.

As to `COc1cc(Nc2ncc(F)c(Nc3cccc(Cl)c3NS(C)(=O)=O)n2)cc(OC)c1OC` [Example 184, N-(2-chloro-6-(5-fluoro-2-(3,4,5-trimethoxyphenylamino)pyrimidin-4-ylamino)phenyl)methanesulfonamide], the pIC50 at ZAP-70 and in the assay on Jurkat cells was 6.00 to 7.00 throughout.

As to `CS(=O)(=O)Nc1ccccc1Nc1nc(Nc2ccc(N3CCCCC3)cc2)ncc1Br` [Example 215, N-(2-(5-bromo-2-(4-(piperidin-1-yl)phenylamino)pyrimidin-4-ylamino)phenyl)methanesulfonamide], the pIC50 on ZAP-70 and in the assay on Jurkat cells was 6.00 to 7.00 each time.
